This note sets out measurements from US20180057888A1, “KUB5/HERA AS A DETERMINANT OF SENSITIVITY TO DNA DAMAGE” (priority 2015, published 2018).

Read-outs that look alike come from different tables or passages of the source.

One data set has as its system 231 cells. Nature of the data set: Western blot analysis of pS1497-BRCA1 and CDK1 in 231 cells. In kind it is cell-based. The conditions noted are these: 24 hr; for CDK1 protein level: Rucaparib 5 μM and/or RO3066 0.5 and 1 μM. The procedure: FIGS. 9A-H. Loss of K-H compromises CDK1 expression/activity and reduces HR-mediated DSB repair. (FIG. 9[…]1 cells transiently transfected with indicated concentrations of siK-H for 48 hr. Total cellular proteins from each treatments were subjected to Western blot analysis using indicated antibodies. (FIG. 9B) Western blot analysis of CDK1 protein levels in 231 […] treated with siK-H (15 nM) and harvested at various times (24, 48, 72 hr). (FIG. 9C) Western blot analysis of CDK1 protein levels in 231 cells treated with siRNA to nonspecific gene control (siSCR) or specific genes as indicated (15 nM). Specific siRNA oligonucleotide sequences used in this study are listed in Table S3. […] (FIG. 9E) 231 cells treated with ionizing radiation (IR, 2 Gy) and harvested after 1 hr. […] Bottom, Endogenous phospho-[…] BRCA1 is higher in shSCR compared to shK-H. After IR treatment, […] BRCA1 phosphorylation is impaired in 231 shK-H but not in shSCR. (FIG. 9F) 231 cells treated with PARP1i Rucaparib (5 μM, 24 hr), CDK1 inhibitor RO3066 (0.5 and 1 μM, 24 hr) or combination [Rucaparib+RO3066]. Cells were harvested after 24 hr treatment. […] BRCA1 was activated ([…]-BRCA1) after Rucaparib treatment alone (lane 2) but not in combination with CDK1 inhibitor, RO3066 (lanes 5 and 6). […] (FIG. 90) Comparison of 231 […]) treated with Rucaparib (5 μM, 24 hr), CDK1 inhibitor RO3066 (1 μM, 24 hr) or combination [Rucaparib+RO3066]. Cells were harvested after 24 hr treatment. […] Endogenous […]-BRCA1 was higher in vehicle-treated shSCR (lane 1) compared to shK-H (lane 6). […] (FIG. 9H) Homologous recombination assay in MCF-7 cells using DR-GFP reporter system. Columns represent mean percentage of GFP-positive cells normalized to control (siSCR); error bars represent ±s.e.m. from duplicate experiments, *p<0.05, **p<0.01. See Table S3 for siRNA sequences. siK-H used was to 3'-UTR. Western Blot Analysis. Whole-cell lysates and nuclear extracts were prepared as previously described (Morales et al., 2014). See Supplementary Table S2 for a list of specific antibodies and dilutions used. Protein concentrations were determined by BCA Assay following manufacturer's instructions (Thermo Scientific). Normalized protein samples were separated on denaturing gradient gels (4-20% from BioRad) and were transferred to PVDF membranes for immunoblotting. After transfer, the membranes were first blocked with 1× Sigma Blocking Buffer for an hour at room temperature. The membranes were then incubated with the indicated primary antibodies diluted in 1× Sigma Blocking Buffer at 4° C. overnight. After this step, the membranes were washed with PBST (3×, 10 minutes each). HRP-conjugated secondary antibodies were diluted in 1× Sigma Blocking Buffer and incubated with the membranes at room temperature for 1 hr. […]
(Immunoblotting shows a protein as a band on a membrane.)

The subject of the next data set is MDA-MB-231 shK-H cells. Nature of the data set: Colony formation assay (clonogenic survival), MDA-MB-231 shK-H. In kind it is cell-based. Particulars: for sensitivity of shK-H cells in colony forming assays: shK-H cells compared to parental or shSCR 231 cells, 24 hr treatment; for CC50: Homo sapiens. The procedure:
(§1) Colony Formation Assay (CFA).
(§2) Cells were seeded out in appropriate dilutions and treated with the vehicle (0.01% DMSO) or PARP inhibitors at various concentrations for 24 hr. After treatment, cells were then cultured in drug-free medium for several days (at least six rounds of replication), depending on the proliferation rate of each cell line. Colonies were fixed with formaldehyde (4%) and stained with crystal violet. Colonies containing more than 50 normal-appearing cells were counted using a microscope. Each drug concentration was assessed in triplicate, and the experiments were repeated three times.

In another data set the test system is MDA-MB-231 shSCR cells. Nature of the data set: Colony formation assay (clonogenic survival), MDA-MB-231 shSCR. The data set is classed as cell-based. The procedure:
as §1, §2

The subject of data set [1] is MDA-MB-231 breast cancer cell line. The experiment in a line: Colony formation assay (clonogenic survival), parental MDA-MB-231. The data set is classed as cell-based. On the procedure: as §1, §2
A further data set has as its system MDA-MB-231 shPARP1 cells. Nature of the data set: Colony formation assay (clonogenic survival), MDA-MB-231 shPARP1. The data set is classed as cell-based. The procedure: as §1, §2
Another data set has as its system HCC1937 cells. The experiment in a line: Sulforhodamine B viability assay in HCC1937 cells. In kind it is cell-based. The conditions noted are these: Rucaparib 30 μM, 24 hr. An excerpt: FIGS. 8A-H. Pharmacological and genetic ablation of PARP1 activity is synthetic lethal with aberrant K-H reduction in BRCA-proficient breast cancers. (FIG. 8A) Western blot analysis of the parental BRCA-proficient 231 TNBC compared with 231 cells engineered to generate stable short hairpin RNA targeting non-specific gene control (shSCR), Kub5-Hera (shK-H) or PARP1 (shPARP1). (FIG. 8B) Chemical structures of PARP inhibitors used in this study. Left, AG014361; Right, AG014699 or Rucaparib. (C) Colony formation of specified cell lines treated with varying concentrations (0, 1, 2.5, 5, 10, 25 μM) of PARP inhibitor, AG014361, for 24 hr. Survival is expressed as mean percentage of colonies formed relative to vehicle-treated (0.01% DMSO) cells; error bars represent ±s.e.m. from three replicates. (FIG. 8D) Total cellular proteins from indicated 231 cells treated with vehicle (0.01% DMSO), AG014699/Rucaparib (5 μM), or staurosporine (STS, 2 μM) were subjected to Western blot analysis with indicated antibodies. (FIG. 8E) Western blot analysis of HCC1937 cell lines stably transfected with empty vector (lane 1), BRCA1 cDNA (lane 2), BRCA1 cDNA+ transient siSCR (lane 3), or BRCA1 cDNA+ transient siK-H (lane 4). […] Colorimetric intensity values were obtained using a plate reader, and normalized to control (0.01% DMSO). […]

Another data set deals with shSCR 231 cells. The experiment in a line: Immunofluorescence of γ-H2AX and 53BP1 foci (DSB markers), shSCR cells. The conditions noted are these: shSCR 231 cells with wild-type K-H; Rucaparib 5 μM, 24 hr. The data set is classed as cell-based. On the procedure:
(§3) MDA-MB-231 shSCR or shK-H cells were plated in a six-well plate (˜200,000 each well containing a glass slide) overnight. The next day, cells were treated with DMSO (0.01%) or Rucaparib/AG014699 (5 μM) for 24 hr. After treatment, the media was gently replaced with drug-free media and harvested at various times (0, 1, 6, 24 hr). The slides were gently washed with phosphate-buffered solution (pH=7.4), and fixed with ice cold methanol:acetone solution (3:1) for 10 min at −20° C. The cells were then washed and rehydrated with PBS at room temperature (3×, 5 min intervals). Next, the cells were incubated in blocking solution (5% normal goat serum in PBS) for 60 min at RT. After blocking, the cells were then incubated in primary antibody (diluted in 5% normal goat serum in PBS) overnight at 4° C. The next day, the cells were washed three times with wash buffer (1% BSA in PBS; 5 min. interval between washes). […]
(§4) To elucidate the mechanism by which K-H depletion sensitizes cells to PARP inhibition, the inventors treated shSCR vs shK-H 231 cells with vehicle (0.01% DMSO) or Rucaparib (5 μM) for 24 hr and quantified DSB formation at various times post-treatment using γ-H2AX and/or 53BP1 as surrogate DSB markers (Lobrich et al., 2010; Anderson et al., 2001 and Bekker-Jensen et al., 2005) (representative images, FIG. 2A).

A further data set concerns the target PARP1 (Homo sapiens, UniProt P09874). Nature of the data set: PARP activity assay (PAR formation, immunoblot of total protein lysates). The data set is classed as biochemical. The conditions noted are these: lysates of parental, shK-H, shPARP1, shSCR 231 cells.
In data set [2] the test system is shK-H 231 cells. Nature of the data set: Immunofluorescence of γ-H2AX and 53BP1 foci (DSB markers), shK-H cells. The data set is classed as cell-based. Particulars: shK-H-depleted 231 cells, Rucaparib 5 μM, 24 hr. On the procedure: as §3, §4
Data set [3] has as its system shK-H 231 cells. The experiment in a line: TUNEL assay of apoptotic cell death. In kind it is cell-based. Particulars: Rucaparib 5 and 10 μM, 24 hr. On the procedure: TUNEL Assay. To measure apoptotic cell death, log phase 231 shSCR or shK-H cells were treated with the vehicle (0.01% DMSO) or Rucaparib (5 and 10 μM) for 24 hr, and incubated in drug-free media for additional 72 hr in the cell incubator. The cells were then harvested and fixed in 70% ethanol overnight at −20° C. Equal amount of cells from each treatment were then subjected to terminal deoxynucleotidyltransferase dUTP nick end labeling (TUNEL) following the standard protocols from APO-Direct TUNEL Assay kit (BD Biosciences), which include positive and negative controls. Flow cytometry experiments were immediately performed using the BD LSRFortessa II cell analyzer, and data were analyzed using the BD FACSDiva software (www.bdbiosciences.com). All experiments were performed in triplicate.

Data set [4] concerns HCC1569 breast cancer cell line. Nature of the data set: cells. The data set is classed as cell-based. The conditions noted are these: Homo sapiens, HCC1569, read-out: AG014699 Mean LC50 (SEM). On the procedure:
as §1, §2

The test system of data set [5] is HTB24 breast cancer cell line. Nature of the data set: cells. The data set is classed as cell-based. Particulars: read-out: AG014699 Mean LC50 (SEM). On the procedure: as §1, §2
Data set [6] concerns HTB122 breast cancer cell line. The experiment in a line: cells. The data set is classed as cell-based. The conditions noted are these: read-out: AG014699 Mean LC50 (SEM). The procedure:
as §1, §2

The subject of data set [7] is MCF-7 breast cancer cell line. The experiment in a line: cells. In kind it is cell-based. Particulars: Homo sapiens, MCF7, read-out: AG014699 Mean LC50 (SEM). On the procedure:
as §1, §2

The test system of data set [8] is HCC202 breast cancer cell line. The experiment in a line: cells. The data set is classed as cell-based. Particulars: HCC202, read-out: AG014699 Mean LC50 (SEM). The procedure:
as §1, §2

Where [9] appears, read: Homo sapiens, MDA-MB-231, read-out: AG014699 Mean LC50 (SEM).
Setting [10] is: Homo sapiens, MDA-MB-231, read-out: LC50 values.

Chain of PARP1 (P09874 whole entry): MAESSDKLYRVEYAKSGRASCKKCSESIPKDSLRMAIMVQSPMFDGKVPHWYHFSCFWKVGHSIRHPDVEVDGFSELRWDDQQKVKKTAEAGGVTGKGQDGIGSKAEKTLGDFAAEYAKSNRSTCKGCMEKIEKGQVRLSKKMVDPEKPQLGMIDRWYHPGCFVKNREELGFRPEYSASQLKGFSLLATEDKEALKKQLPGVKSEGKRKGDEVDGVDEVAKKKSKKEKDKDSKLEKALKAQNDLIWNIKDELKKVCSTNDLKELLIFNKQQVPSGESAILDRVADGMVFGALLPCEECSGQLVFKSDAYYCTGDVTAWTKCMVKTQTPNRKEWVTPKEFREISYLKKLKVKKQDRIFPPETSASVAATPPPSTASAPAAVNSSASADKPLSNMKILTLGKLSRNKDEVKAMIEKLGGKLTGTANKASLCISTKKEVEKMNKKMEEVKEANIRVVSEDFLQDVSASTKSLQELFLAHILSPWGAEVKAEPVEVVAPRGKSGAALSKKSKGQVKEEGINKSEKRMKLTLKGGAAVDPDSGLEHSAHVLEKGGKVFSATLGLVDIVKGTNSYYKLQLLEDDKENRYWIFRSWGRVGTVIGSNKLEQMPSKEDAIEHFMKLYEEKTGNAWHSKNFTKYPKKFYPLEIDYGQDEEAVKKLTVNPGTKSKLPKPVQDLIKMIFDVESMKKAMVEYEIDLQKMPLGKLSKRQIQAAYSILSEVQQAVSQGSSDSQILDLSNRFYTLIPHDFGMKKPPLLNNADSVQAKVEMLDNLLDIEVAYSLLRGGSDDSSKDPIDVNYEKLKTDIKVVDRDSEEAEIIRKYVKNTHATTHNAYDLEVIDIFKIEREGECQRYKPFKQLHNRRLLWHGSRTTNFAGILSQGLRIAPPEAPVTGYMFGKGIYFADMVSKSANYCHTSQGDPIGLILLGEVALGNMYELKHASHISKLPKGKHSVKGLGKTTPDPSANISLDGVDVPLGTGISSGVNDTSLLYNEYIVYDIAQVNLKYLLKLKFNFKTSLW

Take `O=C1NC(=NCc2cccs2)S/C1=C\c1ccc2ncccc2c1` [RO3066]: the CDK1 protein level entry in the data set on 231 cells (231 cells) was “no further reduction of CDK1”. Moreover, the “pS1497-BRCA1 activation in combination with Rucaparib” value in the data set on 231 cells (231 shSCR cells, Rucaparib 5 μM + RO3066 1 μM) was “inhibited”.
As to `Cn1ncnc1[C@H]1c2n[nH]c(=O)c3cc(F)cc(c23)N[C@@H]1c1ccc(F)cc1` [Talazoparib], the “sensitivity of shK-H cells in colony forming assays” value with MDA-MB-231 shK-H cells is listed as “more sensitive”.
Take `CN(C)Cc1ccc(-c2nc3cccc4c3n2CCNC4=O)cc1` [AG014361]: the CC50 in the data set with MDA-MB-231 shSCR cells (shSCR 231 cells, similar treatment conditions, read-out: LC50 values) is ~20 µM; in data set [1] (parental 231 cells, similar treatment conditions, read-out: LC50 values), ~20 µM; in the data set with MDA-MB-231 shPARP1 cells (shPARP1 231 cells, similar treatment conditions, read-out: LC50 values), ~20 µM. Further, the “sensitivity of shK-H cells in colony forming assays” value in the data set with MDA-MB-231 shK-H cells is “more sensitive”. Also, the “additional lethality in PARP1-deficient cells” value in the data set with MDA-MB-231 shPARP1 cells (shPARP1 231 cells, dose-response curve coinciding with parental or shSCR cells) is “did not induce additional lethality”.
Regarding `CNCc1ccc(-c2[nH]c3cc(F)cc4c3c2CCNC4=O)cc1` [AG014699, Rucaparib], the CC50 with MDA-MB-231 shSCR cells (setting [9]) was 18 µM; in the data set on MDA-MB-231 shSCR cells (setting [10]) it was ~20 µM; in [1] (setting [9]) it was 20 µM; in data set [1] (setting [10]), ~20 µM; in the data set with MDA-MB-231 shK-H cells (MDA-MB-231, read-out: AG014699 Mean LC50 (SEM)), 0.7 µM; in the data set on MDA-MB-231 shK-H cells (MDA-MB-231, read-out: lethality (LC50) in shK-H 231 cells), 0.66 µM. The CC50 in data set [4] worked out at 18 µM; in data set [5] it was 1.5 µM; in data set [6] it was 3.9 µM; in data set [7], 11 µM; in data set [8] it was 6.7 µM; in the data set with MDA-MB-231 shPARP1 cells (setting [9]), 17 µM. For the same molecule, the CC50 in the data set on MDA-MB-231 shPARP1 cells (setting [10]) was ~20 µM. Besides, in the data set with HCC1937 cells (BRCA1-corrected HCC1937 + siK-H), the “lethality after siK-H depletion of BRCA1-corrected cells” value was “induced lethality”. Also, the “lethality after reconstitution with BRCA1 cDNA” value with HCC1937 cells (BRCA-deficient HCC1937 + BRCA1 cDNA) is “abolished”. The “fold greater lethality than similar AG014361 exposures” value in the data set on MDA-MB-231 shK-H cells (shK-H 231 cells, Rucaparib vs AG014361) is listed as ~6 fold. Also, the “levels of DSBs after exposure” value with shSCR 231 cells was “significantly lower levels of DSBs”. Also, the “Relative PARP enzymatic activity [PAR formation/Time (sec)]” value at PARP1 was “inhibited”. In addition, the “levels of co-localized γ-H2AX and 53BP1 foci (persistent DSBs)” value in the data set with shK-H 231 cells [2] is “dramatically increased”. Besides, the “DSB levels (53BP1 foci formation)” value in the data set with shK-H 231 cells [2] (over time post-treatment) was “Dramatic increase in DSB levels”. Also, the “apoptosis (% TUNEL+)” value in the data set on shK-H 231 cells [3] is on record as “dose-dependent increase in apoptosis”. Also, the CDK1 protein level result with 231 cells (231 cells) is given as “no further reduction of CDK1”. Further, the “BRCA1 activation (pS1497-BRCA1)” value in the data set with 231 cells (231 cells, Rucaparib alone 5 μM) was “activated”.
